“Also recorded” adds a separate entry of the source.
Columns and labels:
[1] = system: 3D-MPS derived from SUM149-PT cells; assay: Real-time growth of RFP-tagged 3D-mammospheres (3D-MPS); format: cell-based, human; conditions: SUM149-PT 3D-MPS, AV-353 100 ng and/or DTX 5 nM, 96 hours
Procedure: FIGS. 7A and 7B show results from treatment of 3D-mammospheres (3D-MPS) of SM149-PT TNBC cells with AV-353 (½ IC50: 100 ng) and/or DTX (½ IC50: 5 nM). FIG. 7A includes representative images of RFP-tagged 3DMPS before and after treatment with AV-353 (½ IC50: 100 ng) and/or DTX (½ IC50: 5 nM) for 96 hours, using Annexin-V (red) as a marker of early apoptosis. FIG. 7B is a graph plotting real-time growth of RFP-tagged 3D-MPS before and after treatment with AV-353 (½ IC50: 100 ng) and/or DTX (½ IC50: 5 nM) for 96 hours. 3D-MPS growth was quantified using the INCUCYTE® Cell Player System. Three independent experiments were performed in triplicate (±S.D.).
(§1) Mammospheres Formation: Human breast cancer cells were plated in ultra-low attachment 24-well and 96-well culture dishes in 100 μL of MAMMOCULT™ medium (STEMCELL™ Technologies; Vancouver, BC, Canada). Medium was added every 2 days for a maximum of 8 days. Mammospheres were trypsinized and expanded every 8 days to form tertiary mammospheres, and their growth was recorded through a digital camera (Nikon).
Real-Time Cell Proliferation, Cytotoxicity and Apoptosis Assays: 5,000 cells were plated in Costar […] plates, treated with Docetaxel (DTX) and/or AV-353 (as monotherapy or in combination). Cell proliferation was monitored in real-time by GFP or RFP fluorescence intensity, and Red Annexin-V was used as an early marker of apoptosis. […]

TNBC-M25 3D-MPS = assay: TNBC-M25 mammosphere growth (area, Image-J); format: cell-based, human
Procedure: FIGS. 4A and 4B show NOTCH3 genetic targeting in TNBC-M25 mammospheres. FIG. 4A includes images of TNBCM25 single-cell dilutions grown under non-adherent conditions. After 48 hours of incubation, mammospheres were treated with 5 nM (½ IC50) or 10 nM (IC50) docetaxel (DTX) for 10 days. FIG. 4B is a graph plotting mammosphere area measured using the NIH Image-J software. Three independent experiments were performed in triplicate (±S.D.).
as §1
as §1, with “Mammosphere Formation:” for “Mammospheres Formation:”, “attachment 24-” for “attachment 24-well”, “(STEMCELL™ Technologies), and medium” for “(STEMCELL™ Technologies; Vancouver, BC, Canada). Medium”

[2] = Toxicology studies, PTX with escalating doses of AV-353; format: in vivo, female NSG mice; conditions: PTX 10 mg/Kg, AV-353 100, 200, 400 ug
Procedure: FIG. 17 is a series of graphs plotting liver toxicity in mice treated with saline (CON), paclitaxel 10 mg/Kg (PTX), paclitaxel 10 mg/Kg+AV-353 100 ug (PTX+AV100), paclitaxel 10 mg/Kg+AV-353 200 ug (PTX+AV200), or paclitaxel 10 mg/Kg+AV-353 400 ug (PTX+AV400), based on measurements of liver function indicators: alanine aminotransferase (ALT), aspartate aminotransferase (AST), alkaline phosphatase (ALP), and total bilirubin (TBIL), as well as an indicator of kidney function (creatinine; CRE), and an indicator of general nutritional status (albumin; ALB). Blood samples (1 ml) were collected from animals, and liver enzyme analysis was carried out using a VETSCAN® instrument (Zoetis; Parsippany, NJ).
Toxicology studies: Female NSG mice received saline solution (control) or 10 mg/Kg paclitaxel (PTX) as monotherapy or in combination with escalating doses of AV-353 (AV100 ug, AV200 ug, and AV400 ug). PTX and AV-353 were administered intraperitoneally 3 times per week for 4 weeks. […] After drug treatment, animals were euthanized and organs of interest (liver and stomach) were paraffin embedded, sectioned, and hematoxylin and eosin stained. […] Although no liver damage was detected at the morphological or histological level, further studies were conducted to determine the extent to which the drug treatments induced an increase of liver enzymes. […]

With `CC(=O)O[C@@]12CO[C@@H]1C[C@H](O)[C@@]1(C)C(=O)[C@H](O)C3=C(C)[C@@H](OC(=O)[C@H](O)[C@@H](NC(=O)OC(C)(C)C)c4ccccc4)C[C@@](O)([C@@H](OC(=O)c4ccccc4)[C@H]21)C3(C)C` [DTX, docetaxel] the “mammosphere (3D-MPS) growth” value [1] was “small effect on growth”, the IC50 (TNBC-M25 3D-MPS; Homo sapiens, TNBC-M25 mammospheres) was 0.01 µM and the 3D-MPS growth (TNBC-M25 3D-MPS; TNBC-M25 3D-MPS) was “did not inhibit 3D MPS growth”.
With `CC(=O)O[C@H]1C(=O)[C@@]2(C)[C@H]([C@H](OC(=O)c3ccccc3)[C@]3(O)C[C@H](OC(=O)[C@H](O)[C@@H](NC(=O)c4ccccc4)c4ccccc4)C(C)=C1C3(C)C)[C@]1(OC(C)=O)CO[C@@H]1C[C@@H]2O` [PTX, paclitaxel] the “liver and stomach histology (H&E)” value ([2]; 3 times per week for 4 weeks) was “No significant damage; also recorded: no significant changes in the architecture of liver and stomach tissue” and the body weight ([2]; intraperitoneally 3 times per week for 4 weeks) was “did not induce body weight loss”.

From patent US20250345419A1, “TREATING CHEMORESISTANT CANCERS WITH NOTCH3 INHIBITORS” (Mayo Foundation for Medical Education and Research, priority 2022, published 2025)
